Earlier results, collected in US10080720B2, “Pharmaceutical composition containing docetaxel” (GAINIA (SHANGHAI) PATENT TECHNOLOGY LTD., priority 2014, dated 2018).

- solubility of docetaxel in water: 6 to 7 µg/mL
Structure (SMILES): CC(=O)O[C@@]12CO[C@@H]1C[C@H](O)[C@@]1(C)C(=O)[C@H](O)C3=C(C)[C@@H](OC(=O)[C@H](O)[C@@H](NC(=O)OC(C)(C)C)c4ccccc4)C[C@@](O)([C@@H](OC(=O)c4ccccc4)[C@H]21)C3(C)C [docetaxel]
